IC50 data for 21 molecules are collected here from patent publication US20240417405A1, “Substituted Spiro Derivatives” (Janssen Pharmaceutica NV, priority 2021, published 2024).

The IC50 is the concentration that gives 50% inhibition.

Experiment [1] concerns the target T1, menin/MLL (terbium chelate-labeled menin, FITC-MBM1 peptide) (Homo sapiens, UniProt O00255, T541A).
T1 construct: Menin (a.a 1-610-6xhis tag)
T1 sequence (O00255 with tags, fused parts or gaps T541A): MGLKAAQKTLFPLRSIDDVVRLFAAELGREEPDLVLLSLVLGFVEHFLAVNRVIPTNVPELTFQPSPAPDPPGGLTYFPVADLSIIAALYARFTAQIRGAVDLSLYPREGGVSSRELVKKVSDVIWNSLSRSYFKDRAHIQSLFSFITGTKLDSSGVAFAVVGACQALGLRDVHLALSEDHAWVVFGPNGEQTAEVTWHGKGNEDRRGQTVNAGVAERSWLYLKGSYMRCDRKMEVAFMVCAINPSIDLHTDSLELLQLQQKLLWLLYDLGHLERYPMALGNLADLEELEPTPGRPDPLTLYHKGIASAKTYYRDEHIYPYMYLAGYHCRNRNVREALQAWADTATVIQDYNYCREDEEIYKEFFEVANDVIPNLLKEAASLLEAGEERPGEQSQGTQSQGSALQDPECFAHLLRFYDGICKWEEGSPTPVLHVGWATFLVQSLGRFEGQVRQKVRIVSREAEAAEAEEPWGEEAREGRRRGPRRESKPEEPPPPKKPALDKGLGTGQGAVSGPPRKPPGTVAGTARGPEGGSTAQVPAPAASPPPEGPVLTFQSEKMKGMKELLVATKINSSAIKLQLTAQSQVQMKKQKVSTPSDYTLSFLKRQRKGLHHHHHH
Description: Menin/MLL homogenous time-resolved fluorescence (HTRF) assay. Type of experiment: binding. Conditions: 30 min incubation. Put shortly:
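Percent inhibition, calculated from the 520/490 nm HTRF ratio against high and low controls, was fitted for IC50 with a 0.1 nM detection limit. Reactions held 200 pM Tb-menin and 75 nM FITC-MBM1 in pH 7.5 Tris buffer with 0.5% DMSO.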
Background: TR-FRET usually uses a lanthanide donor and a delayed reading to cut background.

The next experiment concerns MOLM14 cells. Description: Proliferation assay, spheroid-like growth, MOLM14 (MLL-AF9 rearranged). Type of experiment: cell-based, human. Conditions: Homo sapiens, MOLM-14, 192 h, 8 days, confluence as measure of spheroid size, read-out: spheroid assay_OneTime MOLM14 IC50. Put shortly: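 Seed cells at linear-growth densities in low-attachment wells; add test compound at several concentrations, normalized to 0.3% DMSO; incubate 8 days at 37 °C; image spheroids and measure confluence; calculate absolute IC50 against DMSO and reference-compound controls.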

A further experiment has as its system KO-52 cells. As to the kind of experiment: Proliferation assay, spheroid-like growth, KO-52 (MLL wildtype control cell line). It is filed as cell-based, human. As to conditions: Homo sapiens, 192 h, KO-52 control cells, 8 days, confluence as measure of spheroid size; read-out: spheroid assay_OneTime KO-52 IC50. The protocol:
The anti-proliferative effect of menin/MLL protein/protein interaction inhibitor test compounds was assessed in human leukemia cell lines. The cell line MOLM14 harbors a MLL translocation and expresses the MLL fusion proteins MLL-AF9, respectively, as well as the wildtype protein from the second allele. […] KO-52 was used as a control cell line containing two MLL (KMT2A) wildtype alleles in order to exclude compounds that display general cytotoxic effects.
MOLM14 cells were cultured in RPMI-1640 (Sigma Aldrich) supplemented with 10% heat-inactivated fetal bovine serum (HyClone), 2 mM L-glutamine (Sigma Aldrich) and 50 μg/ml gentamycin (Gibco). KO-52 cell lines were propagated in alpha-MEM (Sigma Aldrich) supplemented with 20% heat-inactivated fetal bovine serum (HyClone), 2 mM L-glutamine (Sigma Aldrich) and 50 μg/ml gentamycin (Gibco).
In order to assess the anti-proliferative effects, 200 MOLM14 cells, or 300 KO-52 cells were seeded in 200 μl media per well in 96-well round bottom, ultra-low attachment plates (Costar, catalogue number 7007). Cell seeding numbers were chosen based on growth curves to ensure linear growth throughout the experiment. Test compounds were added at different concentrations and the DMSO content was normalized to 0.3%. Cells were incubated for 8 days at 37° C. and 5% CO2. Spheroid like growth was measured in real-time by live-cell imaging (IncuCyteZOOM, Essenbio, 4× objective) acquiring images at day 8. Confluence (%) as a measure of spheroid size was determined using an integrated analysis tool.
In order to determine the effect of the test compounds over time, the confluence in each well as a measure of spheroid size, was calculated. Confluence of the highest dose of a reference compound was used as baseline for the LC (Low control) and the confluence of DMSO treated cells was used as 0% cytotoxicity (High Control, HC).
Absolute IC50 values were calculated as percent change in confluence as follows:
LC=Low Control: cells treated with e.g. 1 μM of the cytotoxic agent staurosporin, or e.g. cells treated with a high concentration of an alternative reference compound
GraphPad Prism (version 7.00) was used to calculate the IC50. Dose-response equation was used for the plot of % Effect vs Log 10 compound concentration with a variable slope and fixing the maximum to 100% and the minimum to 0%.

For `CC(C)[C@H]([C@H]1C[C@@H](N2C[C@@H]3[C@H](C2)[C@H]3C(=O)N(C)C)C1)N1CC2(CCN(c3ncnnc3Oc3ccc(F)cc3-c3cncnc3C3CC3)C2)C1` (single isomer, unassigned) [Compound 248], the IC50 in experiment [1] was 0.1 nM; with MOLM14 cells, 4 nM; in the experiment on KO-52 cells, 1460 nM.
For `CC(C)[C@@H]([C@H]1C[C@@H](N2CCC(S(C)(=O)=O)CC2)C1)N1CC2(CCN(c3ncnnc3Oc3ccc(F)cc3-c3cccnc3C3CC3)C2)C1` (single isomer, unassigned) [Compound 23] the same measures were 0.3 nM, 9 nM and 1060 nM.
For `CC(C)[C@@H]([C@H]1C[C@@H](NC2CCOCC2)C1)N1CC2(CCN(c3ncnnc3Oc3ccc(F)cc3-c3cncnc3C3CC3)C2)C1` (single isomer, unassigned) [Compound 165] the same measures were 0.8 nM, 200 nM and 9910 nM.
For `CC(C)[C@H]([C@H]1C[C@H](N2CC[C@H](C(C)(C)O)C2)C1)N1CC2(CCN(c3ncnnc3Oc3ccc(F)cc3-c3cncnc3C3CC3)C2)C1` (single isomer, unassigned) [Compound 69] the same measures were 0.1 nM, 39 nM and 14000 nM.
Regarding `CC(C)[C@H]([C@H]1C[C@@H](N2CCC(S(C)(=O)=O)CC2)C1)N1CC2(CCN(c3ncnnc3Oc3ccc(F)cc3-c3ncccc3C3CC3)C2)C1` (single isomer, unassigned) [Compound 25], the results for the IC50 (in experiment [1]; with MOLM14 cells; in the experiment on KO-52 cells) were 0.1 nM, 85 nM and 5570 nM, respectively.
For `CC(C)C([C@H]1C[C@@H](N2C[C@H]3COC[C@H]3C2)C1)N1CC2(CCN(c3ncnnc3Oc3ccc(F)cc3-c3cnccc3C3CC3)C2)C1` (stereo partly drawn) [Compound 138] the same measures were 0.1 nM, 2 nM and 460 nM.
For `CC(C)[C@@H]([C@H]1C[C@@H](N2CCC3(CCO3)CC2)C1)N1CC2(CCN(c3ncnnc3Oc3ccc(F)cc3-c3nnccc3C3CC3)C2)C1` (single isomer, unassigned) [Compound 251] the same measures were 0.2 nM, 7 nM and 1240 nM.
Taken in the same sequence, the figures for `CC(=O)N[C@H]1C[C@@H]([C@H](N2CC3(CCN(c4ncnnc4Oc4ccc(F)cc4-c4cncnc4C4CC4)C3)C2)C23CC(C2)C3)C1` (single isomer, unassigned) [Compound 342] were 0.3 nM, 82 nM and 5840 nM.
`CC(=O)N1CC2(CCCN2[C@H]2C[C@@H]([C@@H](C(C)C)N3CC4(CCN(c5ncnnc5Oc5ccc(F)cc5-c5cncnc5C5CC5)C4)C3)C2)C1` (single isomer, unassigned) [Compound 56]: the IC50 is 0.4 nM in experiment [1], 350 nM in the experiment on MOLM14 cells and above 15000 nM with KO-52 cells.
As to `CC(C)[C@H]([C@H]1C[C@@H](NC(=O)C2CC2)C1)N1CC2(CCN(c3ncnnc3Oc3ccc(F)cc3-c3cnncc3C3CC3)C2)C1` (single isomer, unassigned) [Compound 185], the values for the IC50 (in experiment [1]; in the experiment with MOLM14 cells; in the experiment with KO-52 cells) were 0.1 nM, 6 nM and 6040 nM, respectively.
As to `CC(C)C([C@H]1C[C@@H](NCC(C)(C)O)C1)N1CC2(CCN(c3ncnnc3Oc3ccc(F)cc3-c3cncnc3C3CC3)C2)C1` (stereo partly drawn) [Compound 133], the IC50 in experiment [1] is 0.1 nM; in the experiment with MOLM14 cells, 21 nM; in the experiment with KO-52 cells it was 7380 nM.
For `CC(C)C(C1CC(O)(c2cnn(C)c2)C1)N1CC2(CCN(c3ncnnc3Oc3ccc(F)cc3-c3cncnc3C3CC3)C2)C1` (stereo not drawn) [Compound 195] the same measures were 1.3 nM, 510 nM and above 15000 nM.
For `CC(C)[C@@H]([C@H]1C[C@@H](N2CC3(CCO3)C2)C1)N1CC2(CCN(c3ncnnc3Oc3ccc(F)cc3-c3cnncc3C3CC3)C2)C1` (single isomer, unassigned) [Compound 102] the same measures were 0.1 nM, 12 nM and 8470 nM.
Turning to `CC(C)[C@H]([C@H]1C[C@@H](N2CCC3(CCO3)CC2)C1)N1CC2(CCN(c3ncnnc3Oc3ccc(F)cc3-c3cncnc3C3CC3)C2)C1` (single isomer, unassigned) [Compound 232], the IC50 was 0.1 nM in experiment [1], 7 nM in the experiment with MOLM14 cells and 1800 nM in the experiment with KO-52 cells.
With `CC(C)[C@@H]([C@H]1C[C@@H](N2CC[C@@H](F)C2)C1)N1CC2(CCN(c3ncnnc3Oc3ccc(F)cc3-c3nnccc3C3CC3)C2)C1` (single isomer, unassigned) [Compound 262], the IC50 is 0.1 nM in experiment [1], 5 nM in the experiment with MOLM14 cells and 1280 nM in the experiment on KO-52 cells.
Taken in the same sequence, the figures for `CC(=O)N[C@H]1C[C@@H]([C@@H](C(C)C)N2CC3(CCN(c4ncnnc4Oc4ccc(F)cc4-c4cnccc4C4CC4)C3)C2)C1` (single isomer, unassigned) [Compound 312] were 0.2 nM, 5 nM and 1270 nM.
For `CC(C)C([C@H]1C[C@@H](N2CCC3(CCO3)CC2)C1)N1CC2(CCN(c3ncnnc3Oc3ccc(F)cc3-c3cncnc3C3CC3)C2)C1` (stereo partly drawn) [Compound 327] the same measures were 0.2 nM, 5 nM and above 15000 nM.
For `CC(=O)N1CCN([C@H]2C[C@H]([C@@H](C(C)C)N3CC4(CCN(c5ncnnc5Oc5ccc(F)cc5-c5cncnc5C5CC5)C4)C3)C2)CC1` (single isomer, unassigned) [Compound 35] the same measures were 1.3 nM, 340 nM and above 15000 nM.
`CC(C)C([C@H]1C[C@H](N2C[C@H]3COC[C@H]3C2)C1)N1CC2(CCN(c3ncnnc3Oc3ccc(F)cc3-c3cncc(C#N)c3C3CC3)C2)C1` (stereo partly drawn) [Compound 143]: the IC50 was determined as 0.1 nM in experiment [1], 27 nM in the experiment with MOLM14 cells and 1530 nM in the experiment with KO-52 cells.
Taken in the same sequence, the figures for `CS(=O)(=O)C1CCN([C@H]2C[C@@H]([C@@H](N3CC4(CCN(c5ncnnc5Oc5ccc(F)cc5-c5cncnc5C5CC5)C4)C3)C34CC(C3)C4)C2)CC1` (single isomer, unassigned) [Compound 341] were 3 nM, above 940 nM and above 15000 nM.
Consider `CC(C)[C@H](C1CN(CC2COC2)C1)N1CC2(CCN(c3ncnnc3Oc3ccc(F)cc3-c3cncnc3C3CC3)C2)C1` (single isomer, unassigned) [Compound 354], for which the values for the IC50 (in experiment [1]; with MOLM14 cells; with KO-52 cells) were 7.4 nM, 2430 nM and above 15000 nM, respectively.
